US11168052B2, “Carbamate derivative compounds, processes for preparing them and their uses” (BIO-PHARM SOLUTIONS CO., LTD., priority 2016, dated 2021)

Assays:
[1] = tested on: CFA-induced pain model in rats; assay: Antiallodynic activity on Complete Freund's Adjuvant (CFA)-induced inflammatory pain model; type: in vivo, Sprague-Dawley rats; details: 50 mg/kg intraperitoneally, von Frey threshold relative to sham, 0.5 hr after administration; for response vs control in vivo at 50 mg/kg: Rattus norvegicus, ip, read-out: Efficacy of 50 mg/kg(%)
Method: Male, Sprague-Dawley rats (210-250 g, Nara Bio, Korea) were habituated for 1 week before surgery and allowed free access to food and water throughout the experimentation. Room temperature and humidity were maintained at 24±2 and 50±10%, respectively.
CFA-induced inflammatory pain was induced by the procedure of Nagakura et al. (2003) and Gregory P. et al. (2010) with minor modifications. CFA (sigma, USA) was injected in the right plantar with a 100 ul volume under gaseous anesthesia with isoflurane. Sham controls were injected with 100 ul of saline, and preparation of the vehicle controls were identical to the group treated with compound, except for administration of vehicles without indentical to the vihecle control group.
Tactile sensitivity (Mechanical allodynia) was evaluated using von Frey monofilaments before and after treatment, and animals were include in the study only if the withdrawal threshold value was less than 4 g. One week after CFA injection, CFA-infused animals, sham-operated animal, and vehicle-operated animals were tested for tactile sensitivity with von Frey monofilaments, with 3 trials for each animal. All Animals were placed in a stainless steel mashe chamber and habituated for 30 min in the test cage. The tactile sensitivity for ipsilateral hind paw was measured using the up-and-down method (Dixon, 1980) with seven von Frey monofilaments (0.4, 1, 2, 4, 6, 8, and 15 g) to 3 trials. The tactile sensitivity test was followed by Dixon's method (Dixon, 1980). The 50% paw withdrawal threshold for each paw was calculated using the following formula: [Xth]log=[vFr]log+ky where [vFr] is the force of the last von Frey used, k=0.2249 which is the average interval (in log units) between the von Frey monofilaments, and y is a value that depends upon the pattern of withdrawal responses (Dixon, 1980).
Antiallodynic effect of compounds was evaluated at the dose of 50 mg/kg (n=4-6), intraperitoneally administrated in a volume of 5 ul/g bw in a vehicle of 30% (v/v) PEG or 20% (v/v) Tween 80. The test was performed peak time of efficacy (0.5 hr) after compound administration.
The relative values compared to the sham (% control) were calculated and shown in Table 5, which show an antiallodynic effect of Compound 1 on CFA-induced pain model in rats.

[2] = tested on: MES (electroshock) seizure in mice; assay: Anti-epilepsy activity, MES test in mouse; type: in vivo, ICR mice
Method: (§1) In the MES test (Ref., G. Villetti et al. Neuropharmacology 40(2001) 866-878), an electrical stimulus (mice: 50 mA, 60 Hz, 0.2 sec, and rats: 150 mA, 60 Hz, 0.2 sec in the test animal) supplied by an 11A Shocker (IITC Life Science Company) was delivered through corneal electrodes. All mice or rats assigned to any electroshock at peak time were treated with each test compound sample which was dissolved in 20% tween 80 prepared by saline solvent applied orally before the test. […] Three doses of the test sample were administered orally to 9-18 animals (3-6 mice per dose) for evaluating the respective doses at which 50% of the animals were protected from seizure (ED50). The ED50 value (median effective dose) was calculated by Litchfield and Wicoxon log-probit method which is a dose-response relationship. Experimental animals, male ICR mice and male SD rats, were purchased from OrientBio, Samtako, or Nara Biotech, Korea, and housed in cages (4-5 mice or 3 rats per cage) for 4-5 days. The range of mice body weight was between 19 and 25 grams and range of rats body weight was between 100 and 130 grams.

[3] = tested on: PTZ (Pentylenetetrazol)-induced clonic seizure in mice; assay: Anti-epilepsy activity, scPTZ test in mouse; type: in vivo, ICR mice
Description: (§2) In this experiment, each test compound sample was formulated as described in Biological Experimental Example 1, and administered intraperitoneally to the test animals (mice; ICR or Rat; SD); Experimental animals, male ICR mice and male SD rats, were purchased from OrientBio or Nara biotech, Korea, and housed 4-5 mice per a cage for 4-5 days. The range of mice body weight was used between 19 and 26 grams and range of rats body weight was used between 100 and 130 grams. After Peak time (0.5, 1, 2 and 4 hr) from the administration, PTZ (Pentylenetetrazol) was administered subcutaneously in the concentration capable of inducing 97% intermittent convulsions (mice: 100-110 mg/kg?bw, 10 μl/g, or rats: 90-110 mg/kg?bw, 2 μl/g). If clonic seizure was not observed for at least 30 minutes in the PTZ administered animal, it can be considered that the test compound has anti-epilepsy activity. The median effective dose (ED50) is determined using 6 animals per a concentration (total three different concentrations), and calculated by Litchfield and Wicoxon log-probit method which is a dose-response relationship.

[4] = tested on: Lithium-pilocarpine induced seizure in rats; assay: Lithium-pilocarpine induced epilepsy test (LI-PILO), prevention test; type: in vivo, Sprague-Dawley rats; details: i.p.
Method: Male Sprague-Dawley rats (purchased from Orient Bio Inc. Korea) of body weight 175 grams were used for these studies and 3 rats per cage were housed for 4-5 days. On the day prior to SE, rats received 127 mg/kg lithium chloride (Sigma, St. Louis, Mo., U.S.A.) intraperitoneally (i.p.). Approximately 18-20 h following this treatment, rats were given an i.p. injection of the concentration capable of inducing 97% intermittent convulsions pilocarpine(Sigma, 30-43 mg/kg). An i.p. injection of 2 mg/kg methyl-scopolamine (Sigma) was administered 30 min prior to pilocarpine to block the effects of the muscarinic agonist on peripheral cholinergic receptors. Test drugs were dissolved in 20% tween80 (Sigma).
The drugs were administered intraperitoneally (i.p.) in a volume of 2 μl/g body weight. Pharmacological effects of all of the test materials were evaluated to compare test groups (n=6) with a control group (n=6). Control group was administered vehicle only. The efficacy was measured 0.5, 1, 2, or 4 hours after the administration of the test material. The time point that the most animals were protected was defined as peak time and the ED50 was determined at peak time. The animals were then transferred to observation cages and observed continuously for 90 min Seizure was elicited in approximately 95% of the control group. Protection was defined as complete absence of seizure grade 3-5 (Racine scale; Racine, 1972) over the 90-min observation period. The effective dose of the compound necessary to protect 50% of the animals against seizures compared to controls (i.e., ED50) was determined by a curve fitting program (Excel 2007, Microsoft).

[5] = tested on: MES (electroshock) seizure in rats; assay: Anti-epilepsy activity, MES test in rats; type: in vivo, SD rats; details: for ED50: Rattus norvegicus, po; for MES test (po) efficacy %: dose 10 mg/kg
Method: as §1

[6] = tested on: PTZ (Pentylenetetrazol)-induced clonic seizure in rats; assay: Anti-epilepsy activity, scPTZ test in rats; type: in vivo, SD rats
Description: as §2

[7] = tested on: ICR mice, tail-flick analgesia meter; assay: Tail-flick test; type: in vivo; details: orally, withdrawal latency
Method: To examine the pain relief effect of the carbamate compounds, a tail-flick test was conducted, referring to Current Protocols in Neuroscience; Behavioral Neuroscience Unit 8.9.
(§3) ICR mice (male, 25-30g; Orient Bio, Korea) were habituated before test (in test room) for 1 hour. Animals were fasted 2 hr before administration of compounds. Each of Compound was orally administered at the 1-3 dose, 10 ul/g, by bodyweight (n=4-6/group). All compounds were dissolved in a vehicle of 30% (v/v) PEG 400 or 20% (v/v) Tween 80. The control group was treated the vehicle without compounds.
After the administration of compounds, the mice tail were put on a tail-flick analgesia meter. To avoid tissue damage, maximal exposure time to pain stimuli was restricted to 15 s. The withdrawal latency was measured to the time to the point when each mouse responded. The relative values compared to the control (% control) were calculated.
The relative values compared to the sham were calculated and shown in Table 7, which show effect of the compound of examples on tail-flick test in Mice.

[8] = tested on: acetic acid-induced writhes in ICR mice; assay: Writhing test (acetic acid); type: in vivo; details: Mus musculus, po
Method: To examine the pain relief effect of the carbamate compounds, a writhing test was conducted, referring to Fischer, L. G. et al. (2008).
as §3, with “24-28g;” for “25-30g;”, “compounds” for “Compound”, “three” for “1-3”, “bw (n=3-5/group).” for “by bodyweight (n=4-6/group).”
0.2-2 hour after the administration of compounds, 0.6% acetic acid at the dose of 10 ul/g by bodyweight was injected into the mice Animals were habituated in the cage for 5 min. 5 min after habituation, the number of writhes (abdominal constriction) was counted for 15 min, referring to Korzeniewska-Rybicka, I. et al. (1998) and compared with that of a control.
The relative values compared to the control (% control) were calculated and shown in […]

[9] = po, read-out: MES test (po) efficacy %

NC(=O)O[C@H]1CCc2cccc(Cl)c2[C@@H]1O [Example 5, (1S, 2S)-8-chloro-1-hydroxy-1,2,3,4-tetrahydronaphthalen-2-yl carbamate]
response vs control in vivo at 50 mg/kg [1]: 30%
responders at 100 mg/kg [2, 9]: 100%
PTZ test (ip) efficacy % ([3]; dose 100 mg/kg): 100(16.6%)

NC(=O)O[C@@H]1c2c(Cl)cccc2C[C@@H]1O [Example 64, (1R, 2S)-7-chloro-2-hydroxy-2,3-dihydro-1H-inden-1-yl carbamate]
response vs control in vivo at 50 mg/kg [1]: 43.7%
Lithium pilocarpine model (pre) efficacy % ([4]; dose 100 mg/kg): 50%
ED50 [5]: 17.8 mg/kg
ED50 ([2]; po): 48.4 mg/kg
scPTZ test (ip) efficacy % ([6]; dose 50 mg/kg): 50%
Tail-flick test Dose [7]: >200 mg/kg

NC(=O)O[C@H]1c2c(Cl)cccc2CC[C@H]1O [Example 18, (1S, 2R)-8-chloro-2-hydroxy-1,2,3,4-tetrahydronaphthalen-1-yl carbamate]
ED50 [8]: 55.6 mg/kg
response vs control in vivo at 50 mg/kg [1]: 50.2%
Lithium pilocarpine model (pre) efficacy % ([4]; dose 100 mg/kg): 16.6%
ED50 [5]: 18.8 mg/kg
ED50 ([2]; po): 45.8 mg/kg
scPTZ test (ip) efficacy % ([6]; dose 50 mg/kg): 50 (33.3%,

NC(=O)O[C@@H]1Cc2cccc(F)c2[C@@H]1O [Example 55, (1S, 2R)-7-fluoro-1-hydroxy-2,3-dihydro-1H-inden-2-yl carbamate]
response vs control in vivo at 50 mg/kg [1]: 34.4%
Lithium pilocarpine model (pre) efficacy % ([4]; dose 100 mg/kg): 33.3%
ED50 ([2]; po): 51.9 mg/kg

NC(=O)O[C@H]1c2c(F)cccc2CC[C@H]1O [Example 25, (1S, 2R)-8-fluoro-2-hydroxy-1,2,3,4-tetrahydronaphthalen-1-yl carbamate]
Lithium pilocarpine model (pre) efficacy % ([4]; dose 10 mg/kg): 33.3%
MES test (po) efficacy % [5]: 33.3%
responders at 50 mg/kg ([2]; po, dose 50 mg/kg, read-out: MES test (po) efficacy %): 75%

COCO[C@H]1c2c(Cl)cccc2CC[C@H]1OC(N)=O [Example 40, (1S, 2R)-8-chloro-1-(methoxymethoxy)-1,2,3,4-tetrahydronaphthalen-2-yl carbamate]
Lithium pilocarpine model (pre) efficacy % ([4]; dose 100 mg/kg): 66.6%
responders at 100 mg/kg [2, 9]: 100%

NC(=O)O[C@@H]1Cc2cccc(Cl)c2[C@@H]1O [Example 51, (1S, 2R)-7-chloro-1-hydroxy-2,3-dihydro-1H-inden-2-yl carbamate]
response vs control in vivo at 50 mg/kg [1]: 40.1%
ED50 [5]: 17.1 mg/kg
ED50 ([2]; po): 37 mg/kg
scPTZ test (ip) efficacy % ([6]; dose 100 mg/kg): 100 (33.3%,

NC(=O)O[C@@H]1CCc2cccc(F)c2[C@@H]1O [Example 10, (1S, 2R)-8-fluoro-1-hydroxy-1,2,3,4-tetrahydronaphthalen-2-yl carbamate]
response vs control in vivo at 50 mg/kg [1]: 35.2%
Lithium pilocarpine model (pre) efficacy % ([4]; dose 100 mg/kg): 66.6%
ED50 [5]: 17.5 mg/kg
responders at 100 mg/kg [2, 9]: 100%

NC(=O)O[C@H]1Cc2cccc(Cl)c2[C@@H]1O [Example 54, (1S, 2S)-7-chloro-1-hydroxy-2,3-dihydro-1H-inden-2-yl carbamate]
Lithium pilocarpine model (pre) efficacy % ([4]; dose 100 mg/kg): 83.3%
MES test (po) efficacy % [5]: 33.3%
ED50 ([2]; po): 26.7 mg/kg
Tail-flick test Dose [7]: >200 mg/kg

NC(=O)O[C@H]1c2c(Cl)cccc2C[C@H]1O [Example 63, (1S, 2R)-7-chloro-2-hydroxy-2,3-dihydro-1H-inden-1-yl carbamate]
response vs control in vivo at 50 mg/kg [1]: 53.1%
ED50 [5]: 19.1 mg/kg
ED50 ([2]; po): 51.9 mg/kg
scPTZ test (ip) efficacy % ([6]; dose 100 mg/kg): 100 (83.3%,

8-chloro-1-hydroxy-1,2,3,4-tetrahydronaphthalen-2-yl carbamate (mixture of SR & RS) [Example 3]
Efficacy of 50 mg/kg(%) [1]: 22.9%
MES test (po) ED50 [5]: 12.1 mg/kg
MES test (po) ED50 [2]: 27.3 mg/kg
PTZ test (ip) ED50 [3]: 25.2 mg/kg
